# Target: T1, progesterone receptor (PR, PRb) (Homo sapiens, UniProt P06401)
# T1 construct: gene PGR; wild type PRb expressed in PR-negative U2OS or TYML cells
# T1 sequence (P06401 1-933): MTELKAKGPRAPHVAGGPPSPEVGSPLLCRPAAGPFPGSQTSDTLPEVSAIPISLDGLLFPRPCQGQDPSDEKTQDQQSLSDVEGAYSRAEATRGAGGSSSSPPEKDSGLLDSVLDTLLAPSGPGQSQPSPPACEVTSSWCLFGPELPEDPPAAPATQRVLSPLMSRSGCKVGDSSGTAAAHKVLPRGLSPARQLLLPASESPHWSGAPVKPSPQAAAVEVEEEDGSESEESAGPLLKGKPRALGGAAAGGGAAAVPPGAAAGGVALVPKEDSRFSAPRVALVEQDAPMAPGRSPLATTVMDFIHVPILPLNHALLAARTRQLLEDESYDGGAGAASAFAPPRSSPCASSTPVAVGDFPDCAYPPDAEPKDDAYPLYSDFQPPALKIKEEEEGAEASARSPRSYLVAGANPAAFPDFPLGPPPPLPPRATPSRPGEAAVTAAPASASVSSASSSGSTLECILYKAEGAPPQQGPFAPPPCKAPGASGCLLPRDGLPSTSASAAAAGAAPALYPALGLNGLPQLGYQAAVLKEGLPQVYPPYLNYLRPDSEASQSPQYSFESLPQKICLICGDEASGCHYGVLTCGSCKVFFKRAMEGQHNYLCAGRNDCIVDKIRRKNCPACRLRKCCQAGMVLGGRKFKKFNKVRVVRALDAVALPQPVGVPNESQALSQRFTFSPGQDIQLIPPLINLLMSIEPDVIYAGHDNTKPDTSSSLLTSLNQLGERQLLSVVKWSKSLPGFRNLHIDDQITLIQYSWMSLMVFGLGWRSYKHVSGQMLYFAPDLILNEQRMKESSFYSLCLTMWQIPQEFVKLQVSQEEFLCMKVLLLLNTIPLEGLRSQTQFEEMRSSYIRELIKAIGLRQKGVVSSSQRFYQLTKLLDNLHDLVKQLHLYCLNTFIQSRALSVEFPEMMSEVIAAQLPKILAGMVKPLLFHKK
# Assay: PR S294 phosphorylation and MMTV-luc/target gene induction by […] P4 in PR-negative cells transfected with wild type PRb
# Type: cell-based
smiles,measurement,value
"CC(=O)[C@H]1CC[C@H]2[C@@H]3CCC4=CC(=O)CC[C@]4(C)[C@H]3CC[C@]12C [P4, progesterone]",PR S294 phosphorylation and MMTV-luc/target gene induction by 10 nM P4 in PR-neg,only the wtPR-expressing cells activated the ERK kinase and led to PR phosphorylation
